biological target: T1, USP8 (Homo sapiens, UniProt P40818); assay: USP8 activity assay (Ub-AMC); type: biochemical; settings: 400 nM Ub-AMC, 1.36 nM enzyme; compounds tested from 200 µM to 91 nM; unit inferred; read-out: Inhibition of cysteine protease activities: USP8
T1 construct: His (from pFastBac-HT vector); made in house; host or cells: Insect cells (Sf9 or High Five), baculovirus
T1 sequence (P40818 1-1118): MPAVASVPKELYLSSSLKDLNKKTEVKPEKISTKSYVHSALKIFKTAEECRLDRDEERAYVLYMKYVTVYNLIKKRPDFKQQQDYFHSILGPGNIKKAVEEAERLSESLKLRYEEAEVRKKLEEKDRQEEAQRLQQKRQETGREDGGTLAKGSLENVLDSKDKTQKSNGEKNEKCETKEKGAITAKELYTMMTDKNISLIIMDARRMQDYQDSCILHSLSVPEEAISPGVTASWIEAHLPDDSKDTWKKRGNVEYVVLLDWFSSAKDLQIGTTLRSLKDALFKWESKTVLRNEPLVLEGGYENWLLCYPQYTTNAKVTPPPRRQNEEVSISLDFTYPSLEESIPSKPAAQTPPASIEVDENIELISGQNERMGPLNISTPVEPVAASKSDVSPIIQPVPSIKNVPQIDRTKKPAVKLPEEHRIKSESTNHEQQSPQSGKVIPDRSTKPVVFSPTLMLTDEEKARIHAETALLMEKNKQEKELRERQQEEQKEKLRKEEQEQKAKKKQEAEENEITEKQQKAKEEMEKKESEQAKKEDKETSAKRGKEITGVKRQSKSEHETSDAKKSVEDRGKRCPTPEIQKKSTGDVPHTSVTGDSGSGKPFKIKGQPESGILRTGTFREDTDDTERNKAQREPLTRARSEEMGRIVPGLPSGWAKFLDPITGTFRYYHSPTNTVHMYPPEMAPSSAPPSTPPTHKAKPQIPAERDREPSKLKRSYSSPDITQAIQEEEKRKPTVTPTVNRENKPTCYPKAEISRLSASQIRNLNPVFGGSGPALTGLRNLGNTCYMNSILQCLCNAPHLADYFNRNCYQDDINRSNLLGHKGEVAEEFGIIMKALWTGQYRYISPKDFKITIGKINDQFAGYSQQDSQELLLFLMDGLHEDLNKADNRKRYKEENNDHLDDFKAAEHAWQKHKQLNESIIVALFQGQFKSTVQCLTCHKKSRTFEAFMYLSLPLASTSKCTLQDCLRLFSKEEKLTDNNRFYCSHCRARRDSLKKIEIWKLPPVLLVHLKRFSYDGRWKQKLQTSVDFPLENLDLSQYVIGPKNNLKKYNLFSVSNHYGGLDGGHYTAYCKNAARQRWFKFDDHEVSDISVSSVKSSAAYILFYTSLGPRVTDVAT
Source text: The cDNA encoding USP8 was obtained by PCR amplification from placenta mRNA. USP8 cDNA was subcloned by PCR into a baculovirus expression vector (pFastBac-HT; Invitrogen). A cDNA encoding a mutated USP8 was generated by mutagenic PCR. The corresponding protein encodes a cysteine to alanine substitution at residue 786. The sequences were ascertained by sequencing of the entire open reading frame. Bacmids encoding […] were generated following DH10bac transposition. The corresponding bacmids were transfected into insect cells (Sf9). Viruses were recovered from culture supernatant and amplified twice. Insect cells (Sf9 or High Five; Invitrogen) were infected for 72 hours. Total cell lysates were harvested and lyzed in lysis buffer (Tris HCl 50 mM pH7.6; 0.75 % NP40; 500 mM NaCl; 10 % glycerol; 1 mM DTT; 10 mM imidazole; Protease Inhibitor Cocktail; AEBSF 20 µg.ml^-1; Aprotinin 10 µg.ml^-1). Proteins were affinity purified on metal affinity resins (Talon Metal affinity resin; BD Biosciences). Bound materials were extensively washed in wash buffer (50 mM Sodium Phosphate pH 7.0; 300 mM NaCl; 10 mM imidazole; 0.5% Triton X-1 00; 10% glycerol) and eluted from the resin in 250 mM imidazole-containing wash buffer. Proteins were dialyzed in dialysis buffer (Tris HCl pH 7.6 20 mM; NaCl 200 mM; DTT 1 mM; EDTA 1 mM; 10% Glycerol). Proteins purifications were analyzed on 4-12% NuPAGE (Invitrogen).
USP8 was diluted in USP buffer (50 mM Tris HCl; 0.5 mM EDTA; 5 mM DTT; 0.01% Triton X-100; Bovine Serum Albumin 0.05 mg.ml^-1 pH8.8). Compounds stocks (100 mM) were stored at -20°C in DMSO. Compounds were tested at different concentrations: from 200 µM to 91 nM.
Reactions were performed as duplicates in Black LJL 96 well plates (HE microplates; Molecular Devices; 20 µl final reaction volume). The substrate concentration for USP8 was 400 nM Ub-AMC (Boston Biochem). The concentration of the enzyme (USP8) in specificity assays was 1.36 nM. The concentrations were determined in order to perform specificity assays under initial velocities at fixed substrate concentration. Compounds were pre-incubated with enzymes for 30 minutes at 25°C. Reactions were initiated by addition of substrate to the plates containing the enzymes (+/- compounds) diluted in assay buffer. Reactions were incubated for 60 minutes at 37°C. Reactions were stopped by adding acetic acid (100 mM final). Readings were performed on a Pherastar Fluorescent Reader (BMG). λ Emission 380 nm : λ Excitation = 460 nm. Data (mean values +/- standard deviation) were analyzed as % of control (no compound) and plotted as percentage versus the Log of the compound concentration using GraphPad (Prism). Data were fitted to a sigmoidal model (variable slope).

| IC50 | SMILES |
| --- | --- |
| > 200 µM | CC(=O)C1=C(O)C(=O)N(CCc2ccc(Cl)cc2)C1c1ccc(Br)cc1 (stereo not shown) [Example 25, 4-acetyl-5-(4-bromo-phenyl)-1-[2-(4-chloro-phenyl)-ethyl]-3-hydroxy-1,5-dihydro-pyrrol-2-one] |
| > 200 µM | CC(=O)C1=C(O)C(=O)N(CCc2ccc(Br)cc2)C1c1ccc(Br)cc1 (stereo not shown) [Example 26, 4-acetyl-5-(4-bromo-phenyl)-1-[2-(4-bromo-phenyl)-ethyl]-3-hydroxy-1,5-dihydro-pyrrol-2-one] |
| > 200 µM | CC(=O)C1=C(O)C(=O)N(CCc2ccc(Cl)c(Cl)c2)C1c1ccc(Br)cc1 (stereo not shown) [Example 28, 4-acetyl-5-(4-bromo-phenyl)-1-[2-(3,4-dichloro-phenyl)-ethyl]-3-hydroxy-1,5-dihydro-pyrrol-2-one] |
| > 200 µM | COc1cccc(CCN2C(=O)C(O)=C(C(C)=O)C2c2ccc(Br)cc2)c1 (stereo not shown) [Example 30, 4-acetyl-5-(4-bromo-phenyl)-3-hydroxy-1-[2-(3-methoxyphenyl)-ethyl]-1,5-dihydro-pyrrol-2-one] |
| > 200 µM | COc1ccc(CCN2C(=O)C(O)=C(C(C)=O)C2c2ccc(Br)cc2)cc1 (stereo not shown) [Example 32, 4-acetyl-5-(4-bromo-phenyl)-3-hydroxy-1-[2-(4-methoxyphenyl)-ethyl]-1,5-dihydro-pyrrol-2-one] |
| > 200 µM | CC(=O)C1=C(O)C(=O)N(CCc2ccc(F)cc2)C1c1ccc(Br)cc1 (stereo not shown) [Example 33, 4-acetyl-5-(4-bromo-phenyl)-3-hydroxy-1-[2-(4-fluorophenyl)-ethyl]-1,5-dihydro-pyrrol-2-one] |
| > 200 µM | CCOc1ccc(CCN2C(=O)C(O)=C(C(C)=O)C2c2ccc(Br)cc2)cc1 (stereo not shown) [Example 34, 4-acetyl-5-(4-bromo-phenyl)-3-hydroxy-1-[2-(4-ethoxy-phenyl)-ethyl]-1,5-dihydro-pyrrol-2-one] |
| > 200 µM | CC(=O)C1=C(O)C(=O)N(CCc2ccccc2)C1c1ccc2c(c1)OCO2 (stereo not shown) [Example 37, 4-acetyl-5-benzo[1,3]dioxol-5-yl-3-hydroxy-1-phenethyl-1,5-dihydro-pyrrol-2-one] |
| > 200 µM | CC(=O)C1=C(O)C(=O)N(CCc2ccccc2)C1c1ccc(Br)c(Br)c1 (stereo not shown) [Example 41, 4-acetyl-5-(3,4-dibromo-phenyl)-3-hydroxy-1-phenethyl-1,5-dihydro-pyrrol-2-one] |
| > 200 µM | CC(=O)C1=C(O)C(=O)N(CCc2ccccc2)C1c1cccnc1Cl (stereo not shown) [Example 42, 4-acetyl-5-(2-chloro-pyridin-3-yl)-3-hydroxy-1-phenethyl-1,5-dihydro-pyrrol-2-one] |
| > 200 µM | CC(=O)C1=C(O)C(=O)N(CCc2ccc(Br)cc2)C1c1ccc(Cl)cc1 (stereo not shown) [Example 45, 4-Acetyl-5-(4-chlorophenyl)-1-[2-(4-bromophenyl)-ethyl]-3-hydroxy-1,5-dihydro-pyrrol-2-one] |
| > 200 µM | CC(=O)C1=C(O)C(=O)N(CCc2ccc(Cl)cc2)C1c1ccc(Cl)cc1 (stereo not shown) [Example 46, 4-Acetyl-5-(4-chlorophenyl)-1-[2-(4-chlorophenyl)-ethyl]-3-hydroxy-1,5-dihydro-pyrrol-2-one] |
| > 200 µM | CC(=O)C1=C(O)C(=O)N(CCc2ccc(Cl)cc2Cl)C1c1ccc(Br)cc1 (stereo not shown) [Example 47, 4-Acetyl-5-(4-bromophenyl)-1-[2-(2,4-dichlorophenyl)-ethyl]-3-hydroxy-1,5-dihydro-pyrrol-2-one] |

Source: patent EP2208725A1, “Novel specific inhibitors of ubiquitin specific protease 7, the pharmaceutical compositions thereof and their therapeutic applications” (Hybrigenics S.A., priority 2009, dated 2010)
